For assay [1], the target named is T1, recombinant human PMYT-1 (Myt1 kinase) (Homo sapiens, UniProt Q99640).
T1 construct: full length PMYT-1 was expressed by baculovirus in insect cells using a N-terminal GST tag; purchased Invitrogen A30984; host or cells: insect cells (baculovirus)
T1 sequence (Q99640 1-499): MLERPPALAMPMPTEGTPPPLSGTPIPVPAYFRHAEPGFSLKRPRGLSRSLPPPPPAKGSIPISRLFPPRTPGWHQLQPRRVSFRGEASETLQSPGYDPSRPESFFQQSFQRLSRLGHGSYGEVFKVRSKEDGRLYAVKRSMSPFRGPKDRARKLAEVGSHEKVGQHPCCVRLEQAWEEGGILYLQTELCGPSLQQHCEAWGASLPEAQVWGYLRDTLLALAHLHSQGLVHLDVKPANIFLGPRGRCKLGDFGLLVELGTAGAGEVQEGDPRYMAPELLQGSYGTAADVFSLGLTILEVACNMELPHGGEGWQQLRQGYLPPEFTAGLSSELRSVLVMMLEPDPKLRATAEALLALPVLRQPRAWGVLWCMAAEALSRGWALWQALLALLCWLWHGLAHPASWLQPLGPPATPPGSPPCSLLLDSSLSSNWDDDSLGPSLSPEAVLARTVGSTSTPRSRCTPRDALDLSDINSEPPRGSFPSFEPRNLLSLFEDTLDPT
The assay is described as follows: LanthaScreen Europium (Eu) Kinase Binding Assay for Myt1 kinase. The note with it: TR-FRET tracer 178 displacement, GST-tagged full length PMYT-1, 60 min, room temperature; mean IC50; read-out: LANTHA Kinase Binding for PMyt1. From the text: We used a LanthaScreen Europium (Eu) Kinase Binding Assay to determine the binding of provided compounds to Myt1 kinase. The assay utilizes an Alexa Fluor 647-labeled ATP competitive kinase tracer that binds to the ATP binding site of a GST-tagged Myt1 kinase, while a europium (Eu) labeled antibody binds to the GST tag. The proximity of fluorescently labeled kinase tracer and europium (Eu) donor fluorophore antibody leads to fluorescence resonance energy transfer (FRET) to the fluorescence label (acceptor) upon excitation of the Eu (donor). Displacement of tracer from the ATP-binding site by a test compound disturbs the proximity between both labels thus lowering the FRET.
This time resolved-FRET binding assay was performed in white 384-well low volume plates (Greiner, cat #784075), at room temperature in kinase buffer A (KBA; Invitrogen cat # PV3189), consisting of 50 mM HEPES-NaOH (pH 7.5), 0.01% Brij-35, 10 mM MgCl2, and 1 mM EGTA. 5 μl of compound (diluted in reaction buffer, to 1% DMSO) were added to various wells in the plate, followed by 5 μl each of recombinant human PMYT-1 (full length PMYT-1 was expressed by baculovirus in insect cells using a N-terminal GST tag (MW: 80.8 kDa) (Invitrogen cat #A30984) and LanthaScreen Eu-anti-GST antibody (Invitrogen, cat #PV5594). After this, 5 μl of kinase tracer 178 (Invitrogen, cat #PV5593) was added to the plate and the plate was incubated for 60 minutes at room temperature. The final assay conditions in each well were: 3 nM tracer 178, 2.5 nM PMYT-1 and 1 nM Eu-labeled antibody in total assay volume of 15 μl. An Envision 2104 (Perkin-Elmer) Plate Reader with the following time-resolve fluorescence setting was used for performing LanthaScreen kinase binding assay. • Excitation 320 nm (30 nm bandpass) • Kinase Tracer Emission 665 nm (10 nm bandpass) • LanthaScreen Eu-anti-Tag Antibody Emission 615 nm (10 nm bandpass) • Dichroic Mirror Instrument dependent • Delay Time 100 μs • Integration Time 200 μs
To calculate the emission ratio, the acceptor/tracer emission ([…]) was divided by the antibody/donor emission ([…]) and the average of duplicate measurement was used for calculations. Data plotting, analysis of binding, and curve fitting was done using Excel add-in XLfit version 5.5.0.5 (IDBS, Guildford, United Kingdom).
(In TR-FRET formats the signal depends on donor and acceptor labels being close together.)

For assay [2], the target named is T2, Myt1 Kinase (Homo sapiens, UniProt Q99640).
T2 construct: endogenous in cells; host or cells: DAOY medulloblastoma cells (ATCC)
T2 sequence (Q99640 1-499): T1 sequence (Q99640 1-499)
The assay is described as follows: AlphaLISA SureFire Ultra Human Phospho-CDK1 (Thr14) target engagement assay in DAOY cells. The format is cell-based. Particulars: 4 h incubation, Cdk1 phosphorylated on threonine 14, read-out: TE Myt1 Kinase (AlphaLISA). The procedure:
The following cellular assay was used to determine the extent to which the compounds disclosed herein inhibit phosphorylation of CDK1 at Thr 14.
DAOY medulloblastoma cell line (ATCC) was cultured in Minimum Essential Medium Eagle supplemented with 10% fetal calf serum (Sigma), 1% Penicillin-Streptomycin and 10 mM HEPES buffer (HyClone). Cell cultures were kept in a humidified incubator at 37° C. and 5% CO2. Cells were routinely tested for Mycoplasma contamination.
For target engagement assessment, quantification of Cdk1 phosphorylated on threonine 14 was detected using the AlphaLISA® SureFire® Ultra™ Human Phospho-CDK1 (Thr14) assay (Perkin Elmer). DAOY cells were seeded into tissue culture 96-well plates (VWR) to a density of 10,000 cells per well. Twenty-four hours post-seeding cells were incubated for 4 h with test compounds at concentrations ranging from 7 to 5000 nM. Cells were washed with PBS and lysed in 50 μl AlphaLISA® lysis buffer before freezing at −80° C. Ten μl of the lysate was transferred to 384 well plates and incubated with AlphaLISA® donor and acceptor beads according to the manufacturer's instructions. Dose response curves and EC50 values were calculated and visualized using GraphPad Prism version 9.
In general terms: Alpha assays give light when donor and acceptor beads are brought close together.

For the compound `Cc1ccc2[nH]nc(C)c2c1-n1nc(-c2ccco2)c(C(N)=O)c1N` (atropisomer, axis not shown) [Compound 116, 5-amino-1-(3,5-dimethyl-1H-indazol-4-yl)-3-(furan-2-yl)-1H-pyrazole-4-carboxamide], in assay [1], the IC50 was more than 250 nM.
For `Cc1ccc2[nH]nc(C)c2c1-n1nc(-c2ccco2)c(C(N)=O)c1N` (single isomer, unassigned) [Compound 103, 5-amino-1-(3,5-dimethyl-1H-indazol-4-yl)-3-(furan-2-yl)-1H-pyrazole-4-carboxamide], the IC50 in assay [1] was 10 to 100 nM.
With `Cc1ccc(O)c(C)c1-n1nc(-c2ccco2)c(C(N)=O)c1N` (single isomer, unassigned) [Compound 105, 5-amino-3-(furan-2-yl)-1-(3-hydroxy-2,6-dimethylphenyl)-1H-pyrazole-4-carboxamide], the IC50 in assay [1] is 10 to 100 nM. Further, in assay [2], the EC50 was more than 1000 nM.
Consider `Cc1ccc(O)c(C)c1-n1nc(-c2cc3ccccc3o2)c(C(N)=O)c1N` (single isomer, unassigned) [Compound 109, 5-amino-3-(benzofuran-2-yl)-1-(3-hydroxy-2,6-dimethylphenyl)-1H-pyrazole-4-carboxamide], for which the IC50 in assay [1] is more than 250 nM.
The same measure, in the same setting: to `Cc1ccc(O)c(C)c1-n1nc(-c2cc(Br)co2)c(C(N)=O)c1N` (single isomer, unassigned) [Compound 110, 5-amino-3-(4-bromofuran-2-yl)-1-(3-hydroxy-2,6-dimethylphenyl)-1H-pyrazole-4-carboxamide] belongs 100 to 250 nM.
In the case of `Cc1ccc(O)cc1-n1nc(-c2ccccc2)c(C(N)=O)c1N` [Compound 1, 5-amino-1-(5-hydroxy-2-methylphenyl)-3-phenyl-1H-pyrazole-4-carboxamide], the IC50 in assay [1] lay in the range of 100 to 250 nM. Also, in assay [2], the EC50 is 500 to 1000 nM.
Turning to `Cc1ccc(O)cc1-n1nc(-c2ccc(F)cc2)c(C(N)=O)c1N` [Compound 2, 5-amino-3-(4-fluorophenyl)-1-(5-hydroxy-2-methylphenyl)-1H-pyrazole-4-carboxamide], the IC50 in assay [1] lay in the range of 100 to 250 nM.
Still for that read-out and setting: next, `COc1ccc(-c2nn(-c3cc(O)ccc3C)c(N)c2C(N)=O)cc1` [Compound 3, 5-amino-1-(5-hydroxy-2-methylphenyl)-3-(4-methoxyphenyl)-1H-pyrazole-4-carboxamide]: more than 250 nM.
As to `Cc1ccc(O)cc1-n1nc(-c2ccc(Cl)cc2)c(C(N)=O)c1N` [Compound 4, 5-amino-3-(4-chlorophenyl)-1-(5-hydroxy-2-methylphenyl)-1H-pyrazole-4-carboxamide], in assay [1], the IC50 was in the range of 100 to 250 nM. In assay [2], the EC50 was more than 1000 nM.
For `Cc1ccc2[nH]ncc2c1-n1nc(-c2ccccc2)c(C(N)=O)c1N` [Compound 5, 5-amino-1-(5-methyl-1H-indazol-4-yl)-3-phenyl-1H-pyrazole-4-carboxamide], in that order: 10 to 100 nM and more than 1000 nM.
For `Cc1ccc(O)cc1-n1nc(-c2cccc(Br)c2)c(C(N)=O)c1N` [Compound 6, 5-amino-3-(3-bromophenyl)-1-(5-hydroxy-2-methylphenyl)-1H-pyrazole-4-carboxamide], the IC50 in assay [1] is more than 250 nM. In addition, the EC50 in assay [2] was more than 1000 nM.
Consider `Cc1ccc(O)cc1-n1nc(-c2cccc(-c3ccncc3)c2)c(C(N)=O)c1N` [Compound 7, 5-amino-1-(5-hydroxy-2-methylphenyl)-3-[3-(pyridin-4-yl)phenyl]-1H-pyrazole-4-carboxamide], for which the IC50 in assay [1] is more than 250 nM.
For the compound `Cc1ccc(O)cc1-n1nc(-c2cccc(C3CCNCC3)c2)c(C(N)=O)c1N` [Compound 8, 5-amino-1-(5-hydroxy-2-methylphenyl)-3-[3-(piperidin-4-yl)phenyl]-1H-pyrazole-4-carboxamide], in assay [1], the IC50 was more than 250 nM.
Turning to `COc1ccc(S(=O)(=O)O)cc1-c1nn(-c2c(C)ccc(O)c2C)c(N)c1C(N)=O` [Compound 60], the IC50 in assay [1] was more than 250 nM.
With `Cc1ccc(O)c(C)c1-n1nc(-c2cccc(F)c2)c(C(N)=O)c1N` [Compound 61], the IC50 in assay [1] fell in the range of 10 to 100 nM. For the same compound, in assay [2], the EC50 is more than 1000 nM.
`Cc1ccc(O)c(C)c1-n1nc(-c2ccccc2Cl)c(C(N)=O)c1N` [Compound 62]: the IC50 in assay [1] was more than 250 nM.
For `Cc1cccc(-c2nn(-c3c(C)ccc(O)c3C)c(N)c2C(N)=O)c1` [Compound 63], the IC50 in assay [1] lay within 10 to 100 nM.
For the compound `COc1ccccc1-c1nn(-c2c(C)ccc(O)c2C)c(N)c1C(N)=O` [Compound 64], the IC50 in assay [1] was more than 250 nM.
The same measure, in the same setting: to `Cc1ccc(O)c(C)c1-n1nc(-c2ccccc2F)c(C(N)=O)c1N` [Compound 65] belongs 10 to 100 nM; to `Cc1ccccc1-c1nn(-c2c(C)ccc(O)c2C)c(N)c1C(N)=O` [Compound 66], more than 250 nM.
Consider `Cc1cc(Cl)c(O)c(C)c1-n1nc(-c2ccc(Br)o2)c(C(N)=O)c1N` [Compound 74, 5-amino-3-(5-bromo-2-furyl)-1-(4-chloro-3-hydroxy-2,6-xylyl)-4-pyrazolecarboxamide], for which the IC50 in assay [1] was 10 to 100 nM. Also, the EC50 in assay [2] is more than 1000 nM.
With `Cc1ccc(O)c(C)c1-n1nc(-c2ccoc2)c(C(N)=O)c1N` [Compound 76, 5-amino-3-(3-furyl)-1-(3-hydroxy-2,6-xylyl)-4-pyrazolecarboxamide], the IC50 in assay [1] lay in the range of 10 to 100 nM. Also, the EC50 in assay [2] is more than 1000 nM.
For `Cc1ccc2[nH]ncc2c1-n1nc(-c2cc3ccccc3o2)c(C(N)=O)c1N` [Compound 77, 5-amino-3-(1-benzofuran-2-yl)-1-(5-methyl-1H-indazol-4-yl)-4-pyrazolecarboxamide], in that order: 10 to 100 nM and more than 1000 nM.
For the compound `Cc1ccc(O)c(C)c1-n1nc(-c2coc(Br)c2)c(C(N)=O)c1N` [Compound 78, 5-amino-3-(5-bromo-3-furyl)-1-(3-hydroxy-2,6-xylyl)-4-pyrazolecarboxamide], the IC50 in assay [1] lay in the range of 10 to 100 nM. Further, in assay [2], the EC50 lay within 250 to 500 nM.
The matching figures for `Cc1ccoc1-c1nn(-c2c(C)ccc(O)c2C)c(N)c1C(N)=O` [Compound 83, 5-amino-1-(3-hydroxy-2,6-xylyl)-3-(3-methyl-2-furyl)-4-pyrazolecarboxamide]: 10 to 100 nM and more than 1000 nM.
The matching figures for `Cc1ccc2[nH]ncc2c1-n1nc(-c2ccco2)c(C(N)=O)c1N` [Compound 84, 5-amino-3-(2-furyl)-1-(5-methyl-1H-indazol-4-yl)-4-pyrazolecarboxamide]: 10 to 100 nM and more than 1000 nM.
For `Cc1ccc2[nH]ncc2c1-n1nc(-c2ccc(Br)o2)c(C(N)=O)c1N` [Compound 85, 5-amino-3-(5-bromo-2-furyl)-1-(5-methyl-1H-indazol-4-yl)-4-pyrazolecarboxamide], in that order: 10 to 100 nM and more than 1000 nM.
Consider `Cc1ccc(O)c(C)c1-n1nc(-c2cnn(C)c2)c(C(N)=O)c1N` [Compound 121], for which, in assay [1], the IC50 was in the range of 10 to 100 nM.

Source of the values: patent US20260209208A1, “PHENYL-PYRAZOLE CARBOXAMIDE COMPOUNDS” (Acrivon Therapeutics, Inc., priority 2022, published 2026).
